Read-outs that look alike come from different tables or passages of the source.
Legend:
Assay in all cases: Glasshouse assay for herbicidal activity (pre- and post-emergence), percentage phytotoxicity
Assay type in all cases: in vivo
Lolium perenne (LOLPE) = conditions: Lolium perenne
Summary of the method: (§1)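 Visually rated damage, 0–100%. PRE spray 1 d after sowing, scored 20 DAA; POST spray ~12 d, scored 15 DAA. Glasshouse at 65% humidity, 16 h day.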

[1] = tested on: Echinochloa crus-galli (ECHCG); conditions: Echinochloa crus-galli
Summary of the method: as §1

Avena fatua (AVEFA) = conditions: Avena fatua
Summary of the method: as §1

[2] = tested on: Alopecurus myosuroides (ALOMY); conditions: Alopecurus myosuroides
Summary of the method: as §1

[3] = post-emergence, 360 h, POST-emergence, rate 250 g/ha, visual score 15 DAA (100%=total damage, 0%=no damage), read-out: Post-emergence herbicidal activity (percentage phytotoxicity) LOLPE POST
[4] = pre-emergence, 480 h, PRE-emergence, rate 250 g/ha, visual score 20 DAA (100%=total damage, 0%=no damage), read-out: Pre-emergence herbicidal activity (percentage phytotoxicity) LOLPE PRE
[5] = post-emergence, 360 h, POST-emergence, rate 250 g/ha, visual score 15 DAA (100%=total damage, 0%=no damage), read-out: Post-emergence herbicidal activity (percentage phytotoxicity) ECHCG POST
[6] = pre-emergence, 480 h, PRE-emergence, rate 250 g/ha, visual score 20 DAA (100%=total damage, 0%=no damage), read-out: Pre-emergence herbicidal activity (percentage phytotoxicity) ECHCG PRE
[7] = post-emergence, 360 h, POST-emergence, rate 250 g/ha, visual score 15 DAA (100%=total damage, 0%=no damage), read-out: Post-emergence herbicidal activity (percentage phytotoxicity) AVEFA POST
[8] = pre-emergence, 480 h, PRE-emergence, rate 250 g/ha, visual score 20 DAA (100%=total damage, 0%=no damage), read-out: Pre-emergence herbicidal activity (percentage phytotoxicity) AVEFA PRE
[9] = post-emergence, 360 h, POST-emergence, rate 250 g/ha, visual score 15 DAA (100%=total damage, 0%=no damage), read-out: Post-emergence herbicidal activity (percentage phytotoxicity) ALOMY POST
[10] = pre-emergence, 480 h, PRE-emergence, rate 250 g/ha, visual score 20 DAA (100%=total damage, 0%=no damage), read-out: Pre-emergence herbicidal activity (percentage phytotoxicity) ALOMY PRE
[11] = post-emergence, 360 h, 250 g/ha, post-emergence, 15 DAA, visual assessment (100%=total damage, 0%=no damage), read-out: Post-emergence herbicidal activity (percentage phytotoxicity) LOLPE POST
[12] = pre-emergence, 480 h, 250 g/ha, pre-emergence, 20 DAA, visual assessment (100%=total damage, 0%=no damage), read-out: Pre-emergence herbicidal activity (percentage phytotoxicity) LOLPE PRE
[13] = post-emergence, 360 h, 250 g/ha, post-emergence, 15 DAA, visual assessment (100%=total damage, 0%=no damage), read-out: Post-emergence herbicidal activity (percentage phytotoxicity) ECHCG POST
[14] = pre-emergence, 480 h, 250 g/ha, pre-emergence, 20 DAA, visual assessment (100%=total damage, 0%=no damage), read-out: Pre-emergence herbicidal activity (percentage phytotoxicity) ECHCG PRE
[15] = post-emergence, 360 h, 250 g/ha, post-emergence, 15 DAA, visual assessment (100%=total damage, 0%=no damage), read-out: Post-emergence herbicidal activity (percentage phytotoxicity) AVEFA POST
[16] = pre-emergence, 480 h, 250 g/ha, pre-emergence, 20 DAA, visual assessment (100%=total damage, 0%=no damage), read-out: Pre-emergence herbicidal activity (percentage phytotoxicity) AVEFA PRE
[17] = post-emergence, 360 h, 250 g/ha, post-emergence, 15 DAA, visual assessment (100%=total damage, 0%=no damage), read-out: Post-emergence herbicidal activity (percentage phytotoxicity) ALOMY POST
[18] = pre-emergence, 480 h, 250 g/ha, pre-emergence, 20 DAA, visual assessment (100%=total damage, 0%=no damage), read-out: Pre-emergence herbicidal activity (percentage phytotoxicity) ALOMY PRE
[19] = post-emergence, 360 h, Rate 250 g/ha, post-emergence, assessed visually 15 DAA, 100%=total damage, 0%=no damage, read-out: Post-emergence herbicidal activity (percentage phytotoxicity) LOLPE POST
[20] = pre-emergence, 480 h, Rate 250 g/ha, pre-emergence, assessed visually 20 DAA, 100%=total damage, 0%=no damage, read-out: Pre-emergence herbicidal activity (percentage phytotoxicity) LOLPE PRE
[21] = post-emergence, 360 h, Rate 250 g/ha, post-emergence, assessed visually 15 DAA, 100%=total damage, 0%=no damage, read-out: Post-emergence herbicidal activity (percentage phytotoxicity) ECHCG POST
[22] = pre-emergence, 480 h, Rate 250 g/ha, pre-emergence, assessed visually 20 DAA, 100%=total damage, 0%=no damage, read-out: Pre-emergence herbicidal activity (percentage phytotoxicity) ECHCG PRE
[23] = post-emergence, 360 h, Rate 250 g/ha, post-emergence, assessed visually 15 DAA, 100%=total damage, 0%=no damage, read-out: Post-emergence herbicidal activity (percentage phytotoxicity) AVEFA POST
[24] = pre-emergence, 480 h, Rate 250 g/ha, pre-emergence, assessed visually 20 DAA, 100%=total damage, 0%=no damage, read-out: Pre-emergence herbicidal activity (percentage phytotoxicity) AVEFA PRE
[25] = post-emergence, 360 h, Rate 250 g/ha, post-emergence, assessed visually 15 DAA, 100%=total damage, 0%=no damage, read-out: Post-emergence herbicidal activity (percentage phytotoxicity) ALOMY POST
[26] = pre-emergence, 480 h, Rate 250 g/ha, pre-emergence, assessed visually 20 DAA, 100%=total damage, 0%=no damage, read-out: Pre-emergence herbicidal activity (percentage phytotoxicity) ALOMY PRE

Row | SMILES | pest or weed control at 250 g/ha (Lolium perenne (LOLPE); [11]) | pest or weed control at 250 g/ha (Lolium perenne (LOLPE); [12]) | pest or weed control at 250 g/ha [1, 13] | pest or weed control at 250 g/ha [1, 14] | pest or weed control at 250 g/ha (Avena fatua (AVEFA); [15]) | pest or weed control at 250 g/ha (Avena fatua (AVEFA); [16]) | pest or weed control at 250 g/ha [2, 17] | pest or weed control at 250 g/ha [2, 18] | pest or weed control at 250 g/ha (Lolium perenne (LOLPE); [19]) | pest or weed control at 250 g/ha (Lolium perenne (LOLPE); [20]) | pest or weed control at 250 g/ha [1, 21] | pest or weed control at 250 g/ha [1, 22] | pest or weed control at 250 g/ha (Avena fatua (AVEFA); [23]) | pest or weed control at 250 g/ha (Avena fatua (AVEFA); [24]) | pest or weed control at 250 g/ha [2, 25] | pest or weed control at 250 g/ha [2, 26] | further results
1 | C/C=C/c1cc(C)c(C2C(=O)CC(CC(=O)N(C)CC)C2=O)c(C)c1 (centres unmarked) [Compound B248] | – | – | – | – | – | – | – | – | – | – | – | – | – | – | – | – | pest or weed control at 250 g/ha (Lolium perenne (LOLPE); [3]): 100%; pest or weed control at 250 g/ha (Lolium perenne (LOLPE); [4]): 80%; pest or weed control at 250 g/ha [1, 5]: 100%; pest or weed control at 250 g/ha [1, 6]: 60%; pest or weed control at 250 g/ha (Avena fatua (AVEFA); [7]): 100%; pest or weed control at 250 g/ha (Avena fatua (AVEFA); [8]): 50%; pest or weed control at 250 g/ha [2, 9]: 100%; pest or weed control at 250 g/ha [2, 10]: 50%
2 | Cc1cc(C)c(C2C(=O)CC(CC(=O)NC3(C)CCC3)C2=O)c(C)c1 (centres unmarked) [Compound B32] | 50% | 90% | 80% | 80% | 40% | 0% | 70% | 90% | – | – | – | – | – | – | – | – | –
3 | Cc1cc(C)c(C2C(=O)CC(CC(=O)NCc3cccc(Cl)c3)C2=O)c(C)c1 (centres unmarked) [Compound A96] | – | – | – | – | – | – | – | – | 100% | 100% | 80% | 100% | 80% | 70% | 80% | 100% | –
4 | C#CCN(C)C(=O)CC1CC(=O)C(c2c(C)cc(C)cc2C)C1=O (centres unmarked) [Compound B38] | 90% | 100% | 90% | 100% | 90% | 60% | 70% | 70% | – | – | – | – | – | – | – | – | –
5 | Cc1cc(-c2ncc(Cl)cc2F)cc(C)c1C1C(=O)CC(CC(=O)NC/C=C/Cl)C1=O (centres unmarked) [Compound B162] | 100% | 100% | 100% | 100% | 100% | 90% | 100% | 100% | – | – | – | – | – | – | – | – | –
6 | COCC#CC(C)(C)NC(=O)CC1CC(=O)C(c2c(C)cc(C)cc2C)C1=O (centres unmarked) [Compound A104] | – | – | – | – | – | – | – | – | 60% | 80% | 70% | 80% | 70% | 0% | 90% | 90% | –
7 | CCc1cc(OCC(F)(F)F)cc(C)c1C1C(=O)CC(CC(=O)N(C)CC)C1=O (centres unmarked) [Compound B220] | – | – | – | – | – | – | – | – | – | – | – | – | – | – | – | – | pest or weed control at 250 g/ha (Lolium perenne (LOLPE); [3]): 100%; pest or weed control at 250 g/ha (Lolium perenne (LOLPE); [4]): 100%; pest or weed control at 250 g/ha [1, 5]: 100%; pest or weed control at 250 g/ha [1, 6]: 100%; pest or weed control at 250 g/ha (Avena fatua (AVEFA); [7]): 100%; pest or weed control at 250 g/ha (Avena fatua (AVEFA); [8]): 90%; pest or weed control at 250 g/ha [2, 9]: 100%; pest or weed control at 250 g/ha [2, 10]: 100%
8 | C/C=C/c1cc(C)c(C2C(=O)CC(CC(=O)NC(C)(C)C)C2=O)c(CC)c1 (centres unmarked) [Compound B136] | – | – | – | – | – | – | – | – | – | – | – | – | – | – | – | – | pest or weed control at 16 g/ha (Lolium perenne (LOLPE); post-emergence, 360 h, post-emergence, 15 DAA, read-out: Post-emergence herbicidal activity (percentage phytotoxicity) LOLPE POST): 100%; pest or weed control at 16 g/ha (Lolium perenne (LOLPE); pre-emergence, 480 h, pre-emergence, 20 DAA, read-out: Pre-emergence herbicidal activity (percentage phytotoxicity) LOLPE PRE): 90%; pest or weed control at 16 g/ha ([1]; post-emergence, 360 h, post-emergence, 15 DAA, read-out: Post-emergence herbicidal activity (percentage phytotoxicity) ECHCG POST): 90%; pest or weed control at 16 g/ha ([1]; pre-emergence, 480 h, pre-emergence, 20 DAA, read-out: Pre-emergence herbicidal activity (percentage phytotoxicity) ECHCG PRE): 100%; pest or weed control at 16 g/ha (Avena fatua (AVEFA); post-emergence, 360 h, post-emergence, 15 DAA, read-out: Post-emergence herbicidal activity (percentage phytotoxicity) AVEFA POST): 100%; pest or weed control at 16 g/ha (Avena fatua (AVEFA); pre-emergence, 480 h, pre-emergence, 20 DAA, read-out: Pre-emergence herbicidal activity (percentage phytotoxicity) AVEFA PRE): 100%; pest or weed control at 16 g/ha ([2]; post-emergence, 360 h, post-emergence, 15 DAA, read-out: Post-emergence herbicidal activity (percentage phytotoxicity) ALOMY POST): 60%; pest or weed control at 16 g/ha ([2]; pre-emergence, 480 h, pre-emergence, 20 DAA, read-out: Pre-emergence herbicidal activity (percentage phytotoxicity) ALOMY PRE): 90%
9 | Cc1cc(C)c(C2C(=O)CC(CC(=O)NC(C)(C)C3CC3)C2=O)c(C)c1 (centres unmarked) [Compound B65] | 70% | 80% | 70% | 90% | 50% | 60% | 70% | 80% | – | – | – | – | – | – | – | – | –
10 | C=CCOCC(C)(C)NC(=O)CC1CC(=O)C(c2c(C)cc(C#CC)cc2C)C1=O (centres unmarked) [Compound A64] | – | – | – | – | – | – | – | – | 70% | 80% | 100% | 100% | 90% | 70% | 90% | 70% | –

From patent US10206394B2, “Herbicidal compounds” (Syngenta Participations AG, priority 2014, dated 2019)
